These results are taken from publication PMC9038752, “Molecular mechanisms of bifunctional vitamin D receptor agonist-histone deacetylase inhibitor hybrid molecules in triple-negative breast cancer” (Scientific Reports, 2022).

Converted amounts (≈) assume the structure as drawn.

The target in one data set is T1, purified HDAC2 (Homo sapiens, UniProt Q92769).
T1 construct: purchased Cayman Chemical
Put plainly: Fluorogenic HDAC inhibition assay, HDAC2. The format is biochemical. Particulars: purified HDAC2, fluorometric substrate. How it is done: (§1) The hybrids were assessed to determine their HDACi and VDR agonist activity as well as their antiproliferative properties relative to DK-406. HDACi activity was assessed in vitro using an acetylated lysine substrate that releases a fluorescent reporter upon HDACi deacetylation and subsequent trypsin digestion. Increasing sidechain length of pyrimidine hybrids enhanced the potency of HDAC6 inhibition, with several compounds inhibiting HDAC6 with a sub-micromolar IC50, similar to that of DK-406 (Fig. 4a). […] Next, we analyzed the effects of compounds on levels of H3K9 and H3K27 acetylation in 4TO7 cells, which are controlled by class I HDACs[29],[30]. […] We also tested the capacity of analogues to induce tubulin acetylation, controlled by class II enzyme HDAC6[32], in 4TO7 cells. Based on their relative efficacy in cytotoxicity assays (see below, Fig. 5c,d), we used 10^–5 M DK-406 and 10^–6 M AM-193 for these studies.
(§2) Figure 4 (a) Results of in vitro assays for inhibition of purified HDAC2 and HDAC6 by DK-406 and heterocyclic hybrids as measured by inhibition of deacetylation of a fluorometric substrate (see Methods for details). (b–d) Left: Western blotting analysis of histone 3 lysine 9 (H3K9; b), H3K27 (c), or acetylated tubulin (d), levels in 4TO7 cells treated with ligands for 6 h. Representative western-blots are shown from at least 3 biological replicates. Right: Graphs representing the average of the replicates, bars are mean ± SD. Each condition was compared to control. *: p ≤ 0.05, **: p ≤ 0.01, ***: p ≤ 0.001, ****: p ≤ 0.0001, ns: not significant. TEXT PRINTED IN THE PICTURE: (a) DK-406: HDAC6 IC50 (μM): 0.6; HDAC2 IC50 (μM): 0.5 | (a) AM-155: HDAC6 IC50 (μM): 2.8; HDAC2 IC50 (μM): 1.7 | (a) AM-171: HDAC6 IC50 (μM): 0.5; HDAC2 IC50 (μM): 9.6 | (a) AM-172: HDAC6 IC50 (μM): 0.3; HDAC2 IC50 (μM): 7.7 | (a) AM-191: HDAC6 IC50 (μM): 1.9; HDAC2 IC50 (μM): 8.1 | (a) AM-192: HDAC6 IC50 (μM): 0.5; HDAC2 IC50 (μM): 6.5 | (a) AM-193: HDAC6 IC50 (μM): 0.3; HDAC2 IC50 (μM): 7.2
(§3) Purified HDAC2 and HDAC6 were purchased from Cayman Chemical. Boc-Lys(Ac)-7-amino-4-methylcoumarin (BocLys(Ac)-AMC) was used as substrate for the HDAC assays. Substrate solution was prepared as follow: Boc(Lys-Ac)-AMC was dissolved in DMSO and diluted with HDAC buffer (15 mM tris–HCl [pH 8.1], 250 μM EDTA, 250 mM NaCl, 10% glycerol) to give 1 mM solutions containing 1.7% DMSO. Trypsin was used to stop the reaction, releasing free AMC. The trypsin solution was prepared as follow: trypsin was dissolved in HDAC buffer to give a concentration of 10 mg/mL. Release of AMC was monitored by measuring the fluorescence at 460 nm (lex = 390 nm) with a microplate reader (SpectraMax Gemini from Molecular Devices) at 37 °C. The AMC signals were recorded against a blank with buffer, substrate and trypsin but without the enzyme. All experiments were carried out at least in triplicate.
(§4) For HDAC inhibition assays, inhibitor diluted in 50 μL of HDAC buffer was mixed with 10 μL of diluted enzyme solution in HDAC buffer at room temperature. The HDAC reaction was started by adding 40 μL of substrate solution in HDAC buffer followed by 60 min of incubation with stirring at 37 °C. The reaction was stopped by adding 100 μL of trypsin solution. After a 30 min incubation with stirring at 37 °C, the release of AMC was monitored by measuring the fluorescence.

Another data set has as its target T2, purified HDAC6 (Homo sapiens, UniProt Q9UBN7).
T2 construct: purchased Cayman Chemical
T2 sequence (Q9UBN7 1-1215): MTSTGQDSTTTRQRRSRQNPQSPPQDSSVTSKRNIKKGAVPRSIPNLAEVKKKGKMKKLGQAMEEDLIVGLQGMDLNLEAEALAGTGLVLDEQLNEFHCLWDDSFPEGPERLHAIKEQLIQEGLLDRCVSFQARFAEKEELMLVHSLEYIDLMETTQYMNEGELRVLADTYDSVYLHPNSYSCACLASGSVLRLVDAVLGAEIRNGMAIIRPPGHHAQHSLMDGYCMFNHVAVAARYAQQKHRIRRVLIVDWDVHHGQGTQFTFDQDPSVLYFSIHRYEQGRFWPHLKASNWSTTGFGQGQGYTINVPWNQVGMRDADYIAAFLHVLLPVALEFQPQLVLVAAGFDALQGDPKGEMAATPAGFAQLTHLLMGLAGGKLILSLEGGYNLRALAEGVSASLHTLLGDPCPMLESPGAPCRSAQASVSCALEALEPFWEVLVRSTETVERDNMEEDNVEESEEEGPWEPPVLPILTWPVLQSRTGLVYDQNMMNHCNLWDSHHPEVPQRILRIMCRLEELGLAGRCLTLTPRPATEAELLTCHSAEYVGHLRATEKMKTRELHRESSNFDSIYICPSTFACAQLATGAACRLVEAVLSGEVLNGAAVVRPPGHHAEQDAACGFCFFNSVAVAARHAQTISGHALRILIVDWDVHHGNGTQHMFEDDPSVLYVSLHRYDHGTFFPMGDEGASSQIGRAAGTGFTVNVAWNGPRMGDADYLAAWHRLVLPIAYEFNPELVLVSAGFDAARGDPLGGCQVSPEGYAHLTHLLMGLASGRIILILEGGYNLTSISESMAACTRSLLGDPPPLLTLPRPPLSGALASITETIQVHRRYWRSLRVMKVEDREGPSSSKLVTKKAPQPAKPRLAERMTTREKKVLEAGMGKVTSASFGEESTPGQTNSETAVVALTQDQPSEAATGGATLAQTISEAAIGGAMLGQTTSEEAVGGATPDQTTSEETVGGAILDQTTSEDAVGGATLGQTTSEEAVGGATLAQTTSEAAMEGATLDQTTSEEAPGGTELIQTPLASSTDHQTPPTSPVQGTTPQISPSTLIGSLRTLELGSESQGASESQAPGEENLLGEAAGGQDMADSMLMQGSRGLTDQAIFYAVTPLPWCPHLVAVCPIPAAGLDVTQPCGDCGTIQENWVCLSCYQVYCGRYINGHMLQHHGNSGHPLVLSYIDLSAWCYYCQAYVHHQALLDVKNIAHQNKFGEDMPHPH
Put plainly: Fluorogenic HDAC inhibition assay, HDAC6. The format is biochemical. Particulars: purified HDAC6, fluorometric substrate. How it is done:
as §1, §2, §3, §4

Data set [1] relates to 60 human cell line panel of the National Cancer Institute. Also on record: method as in PMID 26048026. The following applies: cell lines from a broad range of tumors, including TNBCs; cited from earlier work.
The test system of data set [2] is 4T1 mouse model of triple negative breast cancer. Also on record: method as in PMID 28847749. The following applies: aggressive 4T1 mouse model of TNBC; cited from earlier work.
Data set [3] is described as follows: Aqueous solubility after sonication. The format is physicochemical. Particulars: water; after sonication for 30 min. An excerpt: The synthesis of the B-ring series mirrored that of the A-ring series producing B-ring hybrids AM-191 (n = 1, 27a), AM-192 (n = 3, 27b), and AM-193 (n = 5, 27c) in 9 steps (Fig. 3).
In the next data set the test system is 4TO7 cells. Put plainly: RNAseq gene expression profiling in 4TO7 cells. The format is cell-based, mouse. The following applies: relative to control. How it is done: Cells were treated for 6 h to focus more on genes directly regulated by the VDR, or for 24 or 48 h to gain insight into longer-term effects on gene expression.
McGill Genome Centre performed a quality control before sequencing in paired-end at 50 M reads by Illumina NovaSeq 6000 S4 PE100. Sets of genes regulated in the different conditions were sent to us and downstream analysis were performed.
Table S1 and Table S2 : See Excel files with RNAseq results and analysis
48 hours prior to RNA extraction. Samples were prepared in triplicate and run on Illumina NovaSeq 6000 S4
PE100. For assessing differential gene expression for RNAseq data, the LIMMA package inR was used.
RNAseq results and statistical analyses from D, S, S+D, DK-406, and AM-193 conditions measured relative to
AM-193 for 6 or 24 hours prior to RNA extraction . Samples were prepared in triplicate and run on Illumina
NovaSeq 6000 S4 PE100. For assessing differential gene expression for RNAseq data, the LIMMA package in R was […]

The mark [4] stands for this setting: 6 h, RNAseq Supplemental table 1.
Setting [5] is: 6 h, RNAseq Supplemental table 2, 1 µM AM-193, 10 µM DK-406, 100 nM 1,25D and SAHA.
Setting [6] is: 24 h, RNAseq Supplemental table 2, 1 µM AM-193, 10 µM DK-406, 100 nM 1,25D and SAHA.
[7] abbreviates: 48 h, RNAseq Supplemental table 1.

T1 sequence (Q92769 whole entry): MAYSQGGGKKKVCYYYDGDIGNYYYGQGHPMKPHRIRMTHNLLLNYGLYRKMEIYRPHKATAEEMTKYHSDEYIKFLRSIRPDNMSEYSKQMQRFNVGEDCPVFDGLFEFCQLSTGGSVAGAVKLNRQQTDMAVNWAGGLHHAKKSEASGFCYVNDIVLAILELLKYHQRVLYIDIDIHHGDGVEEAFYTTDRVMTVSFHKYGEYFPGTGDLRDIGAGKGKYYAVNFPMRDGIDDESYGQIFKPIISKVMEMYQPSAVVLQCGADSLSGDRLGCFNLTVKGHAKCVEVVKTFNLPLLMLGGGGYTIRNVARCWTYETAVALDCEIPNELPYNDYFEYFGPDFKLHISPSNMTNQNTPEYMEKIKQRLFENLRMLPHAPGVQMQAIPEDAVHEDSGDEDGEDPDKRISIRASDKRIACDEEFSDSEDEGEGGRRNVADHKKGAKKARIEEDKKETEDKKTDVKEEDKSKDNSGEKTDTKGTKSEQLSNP

Regarding `CCC(CC)(c1ccc(OCC(O)C(C)(C)C)c(C)c1)c1ccc(OCCCCCC(=O)NO)cn1` (stereo not shown) [AM-172], the IC50 at purified HDAC2 was 7.7 µM; against purified HDAC6 it was 0.3 µM.

In the case of `CCC(CC)(c1ccc(OCCCC(=O)NO)cc1)c1ccc(OCC(O)C(C)(C)C)c(C)n1` (stereo not shown) [AM-192], the values for the IC50 against purified HDAC2 and on purified HDAC6 were 6.5 µM and 0.5 µM, respectively.

For the molecule `CCC(CC)(c1ccc(OCC(=O)NO)cc1)c1ccc(OCC(O)C(C)(C)C)c(C)n1` (stereo not shown) [AM-191], the IC50 against purified HDAC2 was 8.1 µM; at purified HDAC6, 1.9 µM.

As to `CCC(CC)(c1ccc(OCCCCCC(=O)NO)cc1)c1ccc(OCC(O)C(C)(C)C)c(C)c1` (stereo not shown) [DK-367], in data set [1], the antiproliferative activities entry was “displayed antiproliferative activities”. Also, in data set [2], the “tumor growth and metastasis” value is “reduced tumor growth and metastasis”. The same molecule displayed a solubility at 30 min in data set [3] of 1.91 µg/mL (≈ 3.82 µM).

Consider `C=C1/C(=C\C=C2/CCC[C@]3(C)[C@@H]([C@H](C)CCCC(C)(C)O)CC[C@@H]23)C[C@@H](O)C[C@@H]1O` [1,25D, 1α,25-Dihydroxyvitamin D3, reference compound], for which, in data set [2], the “tumor growth and metastasis” value was “inactive alone or in combination”. In addition, in the data set with 4TO7 cells (setting [4]), the “Aaas 6h Log Fold” value is reported as -1.012, the “Aacs 6h Log Fold” value is 1.070, the “Aaed1 6h Log Fold” value is recorded as -1.076 and the “Aagab 6h Log Fold” value came out at 1.036. Further, in the data set with 4TO7 cells (setting [4]), the “Aak1 6h Log Fold” value is recorded as -1.011. Moreover, in the data set on 4TO7 cells (setting [5]), the “Aaas 6h Log Fold” value is -0.038, the “Aacs 6h Log Fold” value stood at 0.025, the “Aagab 6h Log Fold” value turned out to be 0.115 and the “Aak1 6h Log Fold” value was found to be 0.014. The “Aamdc 6h Log Fold” value with 4TO7 cells (setting [5]) is recorded as -0.075. For the same molecule, in the data set with 4TO7 cells (setting [6]), the “Aaas 24h Log Fold” value was -0.054, the “Aacs 24h Log Fold” value turned out to be 0.127, the “Aagab 24h Log Fold” value turned out to be 0.138 and the “Aak1 24h Log Fold” value is recorded as 0.00666. For the same molecule, the “Aamdc 24h Log Fold” value in the data set on 4TO7 cells (setting [6]) is -0.360. Besides, in the data set with 4TO7 cells (setting [7]), the “Aaas 48h Log Fold” value is -1.436, the “Aacs 48h Log Fold” value is 1.516, the “Aaed1 48h Log Fold” value is given as -1.677 and the “Aagab 48h Log Fold” value is listed as 1.592. Besides, in the data set with 4TO7 cells (setting [7]), the “Aak1 48h Log Fold” value turned out to be 1.091.

For the molecule `O=C(CCCCCCC(=O)Nc1ccccc1)NO` [SAHA, Suberoylanilide hydroxamic acid, reference compound], in data set [2], the “tumor growth and metastasis” value is “inactive alone or in combination”.
